# Key:
# Type in all cases: in vivo
# Tg2576 transgenic mice = experiment: Morris water maze (spatial learning and memory)
# From the text: (§1) We used Tg2576 transgenic mice with Alzheimer's Disease expressing the 695-aa human APP isoform which contains the double APPswe Swedish mutation [(APP695) Lys670→Asn, Met671→Leu] triggered by a […] hamster promoter. In the Tg2576 transgenic mice suffering from Alzheimer's disease used in the experimental murine model, the Aβ peptide content in the brain accumulates exponentially between their 7th and 12th months of life. […] Therefore 16 months old Tg2576 transgenic mice females were treated once a day intraperitoneally with 200 mg/kg 4PBA or its vehicle during 5 weeks. To do this a 4PBA solution was prepared titrating equimolecular amounts of 4-phenylbutyric acid (Sigma) and sodium hydroxide at a pH: 7.4. A group of normal mice, not genetically altered, from same similar strains and ages was used as control group. All the clinical test procedures were performed according to the European and the Spanish legislation (86/609/CEE; RD 1201/2005).
# The Morris water maze was used to evaluate the operational and reference memory functions in Tg2576 transgenic mice treated with 4 PBA as described previously in the literature (Ribe et al., 2005). Groups of Tg2576 female mice treated with 4PBA (n=6), vehicle (n=7), and non-transgenic litter siblings (n=10) were subjected to spatial learning and memory tests using the Morris water maze when they became 16 months old. The maze consisted of a circular pool filled with water at 20° C. The mice received prior training in a pool with a visible platform during 3 consecutive days (8 tests per day) being able to swim towards a platform raised above the water level. The training with hidden platform took 9 consecutive days (4 tests per day) during which all mice were allowed 60 seconds to find the platform submerged 1cm below the water surface. […] All the trials were monitored with a VHS camera and the Watermaze software to analyze escape latencies and the percentage of time of occupation of each pool quadrant during prior tests (using the Ethovision software, Wageninge, Netherlands). […]
# Aβ42 = Aβ42 level in cerebral cortex, sandwich ELISA; details: Tg2576 mice, 200 mg/kg i.p. 5 weeks; compared with vehicle-treated transgenic mice (FIG. 2A)
# From the text: as §1, with “A group of normal mice, not genetically altered, from same similar strains and ages was used as control group. All the clinical test procedures were performed according to the European and the Spanish legislation (86/609/CEE; RD 1201/2005).” left out
# (§2) Mice were sacrificed 24 hours after performing the last test in the Morris water maze. […] Then the levels of Aβ40 and Aβ42 in the cerebral cortex were analyzed by a sandwich type ELISA test.
# (§3) The cerebral cortexes were homogenized in a buffer containing 5 M guanidine HCl and 50 mM Tris HCl at a pH=8, protease inhibitors (Roche's CompleteTM Protease Inhibitor Cocktail), and phosphatase inhibitors (0.1 mM Na3VO4, 1 mM NaF). […] Aliquots of the supernatant were freeze-dried at −80° C. and the protein concentration determined using the Bradford method with the Bio-Rad kit. Aβ42 levels were measured with an extra sensitive sandwich-type ELISA kit from Biosource (Camarillo, Calif., USA). […]
# GRP78 = experiment: Western blot of GRP78 in hippocampus; details: Tg2576 mice, 200 mg/kg i.p. 5 weeks; compared with non-transgenic mice (FIG. 4)
# From the text: (§4) We used Tg2576 transgenic mice with Alzheimer's Disease expressing the 695-aa human APP isoform which contains the double APPswe Swedish mutation [(APP695) Lys670→Asn, Met671→Leu] triggered by a […] hamster promoter. In the Tg2576 transgenic mice suffering from Alzheimer's disease used in the experimental murine model, the Aβ peptide content in the brain accumulates exponentially between their 7th and 12th months of life. […] Therefore 16 months old Tg2576 transgenic mice females were treated once a day intraperitoneally with 200 mg/kg 4PBA or its vehicle during 5 weeks. […]
# (§5) NaF) spun at 14,000×g, 4° C. for 20 min and the aliquots obtained from the supernatant were then freeze-dried at −80° C. […] Protein concentration was determined in both cases (using the Bradford test from Bio-Rad) and the aliquots stored at −80° C. until further use. […]
# (§6) To carry out the Western Blot analyses, protein samples were mixed in buffers having the same volumes (2×Laemmli) resolved in SDS-polyacrylamide gels and transferred to a nitrocellulose membrane. […] After two washings in PBS/Tween-20 or TBS/Tween20 and one washing in PBS or TBS, immunolabelled protein bands were detected using an anti-rabbit or anti-mouse HRP conjugate (Santa Cruz, 1:5000 dilution) followed by a chemiluminescence system (ECL Amersham Biosciences), and autoradiographic exposure to HyperfilmTMECL (Amersham Biosciences). […]
# [1] = system: tau phosphorylated at Ser-202/Thr-205 (AT8); experiment: Western blot of phosphorylated tau (AT8) in hippocampus; details: Tg2576 mice, 200 mg/kg i.p. 5 weeks; compared with non-transgenic mice (FIG. 3A)
# From the text: as §4, §5, §6
# PSD95 = experiment: Western blot of PSD95 in membrane enriched hippocampal protein extracts; details: Tg2576 mice, 200 mg/kg i.p. 5 weeks; membrane enriched hippocampal extracts (FIG. 6)
# From the text: as §4, §5, §6
# [2] = system: GluR1 subunit of the AMPA receptor; experiment: Western blot of GluR1 in membrane enriched hippocampal protein extracts; details: Tg2576 mice, 200 mg/kg i.p. 5 weeks, vehicle 81.18±9.5%, non-transgenic 100.0±6.5% (FIG. 6)
# From the text: as §4, §5, §6
# Aβ40 = Aβ40 level in cerebral cortex, sandwich ELISA; details: Tg2576 mice, 200 mg/kg i.p. 5 weeks; compared with vehicle-treated transgenic mice (FIG. 2A)
# From the text: as §4, with “weeks. To do this a 4PBA solution was prepared titrating equimolecular amounts of 4-phenylbutyric acid (Sigma) and sodium hydroxide at a pH: 7.4.” for “weeks.”
# as §2, §3
# [3] = system: GSK3b phosphorylated at Ser 9; experiment: Western blot of inactive GSK3b phosphorylated at Ser 9 in hippocampus; details: Tg2576 mice, 200 mg/kg i.p. 5 weeks; compared with vehicle-treated transgenic mice (FIG. 3B)
# From the text: as §4, §5, §6
# histone 4 (H4) = experiment: Western blot of acetylated histone 4 in cortex; details: Tg2576 mice, 200 mg/kg i.p. 5 weeks; cortex extracts (FIG. 5)
# From the text: as §4, with “weeks. To do this a 4PBA solution was prepared titrating equimolecular amounts of 4-phenylbutyric acid (Sigma) and sodium hydroxide at a pH: 7.4.” for “weeks.”
# To carry out the Western Blot analyses, protein samples were mixed in buffers having the same volumes (2×Laemmli) resolved in SDS-polyacrylamide gels and transferred to a nitrocellulose membrane. […] After two washings in PBS/Tween-20 or TBS/Tween20 and one washing in PBS or TBS, immunolabelled protein bands were detected using an anti-rabbit or anti-mouse HRP conjugate (Santa Cruz, 1:5000 dilution) followed by a chemiluminescence system (ECL Amersham Biosciences), and autoradiographic exposure to HyperfilmTMECL (Amersham Biosciences). The signals were quantified using the Scion Image program (Scion Corporation).
# MAP-2 = experiment: Quantitative western blot of MAP-2 in hippocampal extracts; details: Tg2576 mice, 200 mg/kg i.p. 5 weeks; untreated Tg2576 54.9±10.7, non-transgenic 100.0±14.9 (FIG. 6)
# From the text: as §4, §5, §6
compound,measurement,setting,value
"O=C([O-])CCCc1ccccc1.[Na+] [4PBA, 4-phenylbutyric acid]","proficiency in Morris water maze, invisible platform (escape latency)","Tg2576 transgenic mice; 16 month old Tg2576 female mice, 200 mg/kg i.p. once a day for 5 weeks, compared with non-transgenic control mice of same age (FIG. 1B)",did not differ
same,"escape latencies, visible platform training","Tg2576 transgenic mice; Tg2576 mice, 200 mg/kg i.p. 5 weeks, first training tests with visible platform (FIG. 1A)",did not differ significantly
same,percentage of time spent in the target quadrant (memory retention),"Tg2576 transgenic mice; Tg2576 mice, 200 mg/kg i.p. 5 weeks, platform removed, compared with control group of same age (FIG. 1C)",did not differ
same,Aβ42 levels in cerebral cortex,Aβ42,no difference was observed
same,GRP78 levels in hippocampus,GRP78,did not differ
same,phosphorylated tau at the AT8 site in hippocampus,[1],no differences were found
same,expression of PSD95 levels,PSD95,induced significantly
same,expression levels of the GluR1 subunit of the AMPA receptor,[2],161.37±27.5%
same,Aβ40 levels in cerebral cortex,Aβ40,no difference was observed
same,levels of inactive GSK3b phosphorylated at Ser 9 in hippocampus,[3],higher
same,acetylation of cortical histone 4 (H4),histone 4 (H4),induction of acetylation
same,MAP-2 expression levels,MAP-2,77.7±11.6
